# Assay results from US20040259853A1, “Methods for preventing acute clinical vascular events in a subject” (The Trustees of Columbia University, priority 2000, published 2004).
# Columns and labels:
# [1] = system: ABCA1-independent efflux to HDL2; assay: 3H-cholesterol efflux to HDL2 from free cholesterol-loaded macrophages; type: cell-based, mouse; conditions: 70 nM, FC-loaded macrophages (FIG. 12B)
# Procedure: Acetyl-LDL (800 μg) was incubated with 10 μCi ^3H-cholesterol for 30 min at 37° C., followed by addition of 8 ml of DMEM, 0.2% BSA. The macrophages were incubated with this medium for 5 h, washed 3 times with PBS, and then incubated with DMEM, 0.2% BSA for 15 min at 37° C. After washing with PBS, the macrophages were incubated with DMEM, 0.2% BSA, containing either 15 μg/ml apoAI or 20 μg/ml HDL2. At the indicated time points, 100 μl of media was removed and centrifuged for 5 min at 14,000 rpm to pellet cellular debris. The radioactivity in this fraction of media was quantitated by liquid scintillation counting. After the last time point, the remainder of the media was removed, and the cells were dissolved in 0.5 ml of 0.1 N NaOH containing 0.5% sodium dodecylsulfate (5 h at room temperature). A 100 μl-aliquot of the cell lysate was counted, and the percent efflux was calculated as (media cpm)[…](cell +media cpm)×100. Total protein in the cell lysate was determined using the Bio-Rad DC protein assay kit. Note that there was no statistical difference in cellular cpm or protein between cholesteryl ester- and free cholesterol-loaded macrophages.
# [2] = system: cholesterol trafficking to the endoplasmic reticulum; assay: Whole-cell cholesterol esterification assay (cholesterol trafficking to ER membranes); type: cell-based, mouse
# Procedure: Shown is the mean±S.E.M (n=3) of [^3H]cholesteryl ester formed (in cpm/mg cell protein).
# Macrophages were incubated for 5 h with DMEM, 0.2% BSA containing 50 μg/ml [^3H]cholesterol-labeled acetyl-LDL alone or containing the indicated compounds. Cellular lipids were extracted twice with 0.5 ml of hexane:isopropanol (3:2, v/v), and the cellular content of [^3H]cholesteryl ester was determined using thin-layer chromatography (49). The lipid-extracted cell monolayer was dissolved in 1 ml 1N NaOH and assayed for protein content using the method of Lowry et al. (50).
# [3] = system: LDL receptor knockout mice; assay: In vivo efficacy in LDL receptor knockout mouse model of atherosclerosis; conditions: 0.75 mg/kg/d
# Procedure: Plasma was assayed for total cholesterol.
# Asteriks denote statistically significant differences between drug and control groups (p<0.05 by the Student's t test).
# ER calcium stores = assay: Assay of ER calcium pools (Fura-2, thapsigargin release); type: cell-based, mouse; conditions: 70 nM, acetyl-LDL + 58035, 2.5 h (FIG. 18B)
# Procedure: Shown are representative tracings of the 340/380-nm Fura-2 fluorescence ratio in an individual macrophage from each treatment group before and after addition of 1 μM thapsigargin.
# Untreated or cholesterol-loaded macrophages on 25-mm coverslip-containing microscopy dishes were loaded with 4 μM Fura-2 μM (Molecular Probes) and 0.08% Pluronic F-127 in Hank's buffered saline solution (HBSS) at room temperature for 30 min. The monolayers were then washed twice with HBSS, incubated with HBSS for an additional 30 min and mounted on the stage of an inverted Nikon diaphot microscope equipped with a 40× objective. Sulfinpyrazone (250 μM) was included in all solutions to prevent excretion of the Fura-2 by the macrophages. Fluorescence images (510-nm emission following alternate 340-nm and 380-nm excitation) were collected through a charge-coupled device camera (Photon Technology International), and the 340:380 ratio of individual cells in these images was calculated.
# Cells exposed to U18666A alone or culture media with no additives served as further control groups. […] Thapsigargin treatment results in emptying of ER calcium stores into the cytosol, which was quantified by fluorescence microscopy, providing a measure of releasable ER calcium stores at the time of thapsigargin addition.
smiles,measurement,setting,value
"CCN(CC)CCO[C@H]1CC[C@@]2(C)C(=CC[C@@H]3[C@@H]2CC[C@]2(C)C(=O)CC[C@@H]32)C1 [U18666A, 3-β-[2-(diethylamino)ethoxy]androst-5-en-17-one]",ABCA1-independent efflux (to HDL2),[1],improved
same,decrease of cholesterol trafficking to the endoplasmic reticulum,[2]; 70 nM (data not shown),about 90%
same,reduction of re-esterification of ingested cholesterol,"[2]; low dose (70 nM), 5 h, acetyl-LDL (FIG. 15A)",90%
same,plasma HDL cholesterol versus vehicle,[3]; 12 weeks (FIG. 14B),similar
same,"atherosclerotic lesion area, proximal aorta","[3]; 12 weeks (FIG. 14C), p<0.05",marked reduction
same,"acellular area, proximal aorta","[3]; 12 weeks (FIG. 14D), p<0.05",marked reduction
same,"lipid core area, proximal aorta","[3]; 12 weeks (FIG. 14E), p<0.05",marked reduction
same,plasma total cholesterol versus vehicle,"[3]; 12 weeks, cholesterol and saturated fat diet (FIG. 14A)",similar
same,FC-loading-induced depletion of ER calcium stores (smaller thapsigargin-induced rise),ER calcium stores,completely prevented
